Data published in PubChem BioAssay AID192 (DTP/NCI, 2004).
Where “and” joins values, the source holds several entries; their conditions need not be identical. Equal entries are not always repeated. Inconclusive results and toxic doses are left out.

Test system: BDF1 mice, B16 melanoma ip, median survival T/C
Assay: NCI In Vivo Anticancer Drug Screen. Data for tumor model B16 Melanoma (intraperitoneal) in B6D2F1 (BDF1) mice
Conditions: endpoint: median survival time, higher = longer survival
In short: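 Vehicle-treated animals serve as the reference (C); treated animals (T) are scored for survival or tumor size after tumor transplantation.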

[1] = dose: 25.0 mg/kg/injection, schedule: Q01DX009 (ip), vehicle: Klucel (hydroxypropylcellulose) (HPC)
[2] = dose: 50.0 mg/kg/injection, schedule: Q01DX009 (ip), vehicle: Klucel (hydroxypropylcellulose) (HPC)
[3] = dose: 50.0 mg/kg/injection, schedule: Q01DX009 (ip), vehicle: saline with Tween-80
[4] = dose: 100.0 mg/kg/injection, schedule: Q01DX009 (ip), vehicle: Klucel (hydroxypropylcellulose) (HPC)
[5] = dose: 100.0 mg/kg/injection, schedule: Q01DX009 (ip), vehicle: saline with Tween-80
[6] = dose: 200.0 mg/kg/injection, schedule: Q01DX009 (ip), vehicle: saline with Tween-80
[7] = dose: 12.5 mg/kg/injection, schedule: Q01DX009 (ip), vehicle: Klucel (hydroxypropylcellulose) (HPC)
[8] = dose: 100.0 mg/kg/injection, schedule: Q01DX009 (ip), vehicle: saline
[9] = dose: 200.0 mg/kg/injection, schedule: Q01DX009 (ip), vehicle: saline
[10] = dose: 50.0 mg/kg/injection, schedule: Q01DX009 (ip), vehicle: saline
[11] = dose: 25.0 mg/kg/injection, schedule: Q04DX003 (ip), vehicle: saline with Tween-80
[12] = dose: 200.0 mg/kg/injection, schedule: Q01DX009 (ip), vehicle: Klucel (hydroxypropylcellulose) (HPC)
[13] = dose: 12.5 mg/kg/injection, schedule: Q01DX009 (ip), vehicle: saline with Tween-80
[14] = dose: 25.0 mg/kg/injection, schedule: Q01DX009 (ip), vehicle: saline with Tween-80
[15] = dose: 25.0 mg/kg/injection, schedule: Q01DX009 (ip), vehicle: saline

With `CC(=O)Nc1ccc([I+]c2ccc([N+](=O)[O-])cc2)cc1` the T/C [1] was 100 % of control, the T/C [2] was 104 % of control and the T/C [3] was 87 % of control. The T/C [4] was 90 % of control, the T/C [5] was 98 % of control and the T/C [6] was 107 % of control.

For `COc1ccc(/C=C2\C(=O)OC(=O)\C2=C\c2ccc(OC)c(OC)c2)cc1OC`, the T/C [7] was 98 % of control and the T/C [1] was 90 % of control.

With `CNC=O` the T/C [8] was 99 % of control and the T/C [9] was 110 % of control.

`C1=NC(c2ccccn2)=NNC(c2ccccn2)=C1c1ccccc1` was tested, and the T/C [1] was 100 % of control, the T/C [2] was 101 % of control and the T/C [4] was 86 % of control.

With `N=C(N)Sc1cc(O)ccc1O` the T/C [10] was 105 % of control, the T/C [8] was 94 % of control and the T/C [9] was 91 % of control.

For `CC1=C(C)C(=O)O[C@@H]([C@](C)(O)[C@]2(O)CC[C@@]3(O)[C@@H]4C[C@H]5O[C@]56[C@@H](O)C=CC(=O)[C@]6(C)[C@H]4CC[C@]23C)C1`, the T/C (dose: 2.0 mg/kg/injection, schedule: Q01DX005 (ip), vehicle: saline + alcohol) was 117 % of control, the T/C (dose: 2.0 mg/kg/injection, schedule: Q01DX005 (iv), vehicle: saline + alcohol) was 99 % of control and the T/C (dose: 4.0 mg/kg/injection, schedule: Q01DX001 (ip), vehicle: saline + alcohol) was 113 % of control. The T/C (dose: 4.0 mg/kg/injection, schedule: Q01DX001 (iv), vehicle: saline + alcohol) was 103 % of control, the T/C (dose: 4.0 mg/kg/injection, schedule: Q01DX005 (iv), vehicle: saline + alcohol) was 97 % of control and the T/C (dose: 4.0 mg/kg/injection, schedule: Q01DX005 (oral), vehicle: saline + alcohol) was 103 % of control. The T/C (dose: 4.0 mg/kg/injection, schedule: Q01DX009 (oral), vehicle: saline + alcohol) was 90 % of control, the T/C (dose: 8.0 mg/kg/injection, schedule: Q01DX001 (ip), vehicle: saline + alcohol) was 113 % of control and the T/C (dose: 8.0 mg/kg/injection, schedule: Q01DX001 (iv), vehicle: saline + alcohol) was 114 % of control. The T/C (dose: 8.0 mg/kg/injection, schedule: Q01DX001 (oral), vehicle: saline + alcohol) was 97 % of control, the T/C (dose: 8.0 mg/kg/injection, schedule: Q01DX005 (iv), vehicle: saline + alcohol) was 95 % of control and the T/C (dose: 8.0 mg/kg/injection, schedule: Q01DX005 (oral), vehicle: saline + alcohol) was 103 % of control. For the same compound, the T/C (dose: 8.0 mg/kg/injection, schedule: Q01DX009 (oral), vehicle: saline + alcohol) was 95 % of control, the T/C (dose: 16.0 mg/kg/injection, schedule: Q01DX001 (iv), vehicle: saline + alcohol) was 92 % of control and the T/C (dose: 16.0 mg/kg/injection, schedule: Q01DX001 (oral), vehicle: saline + alcohol) was 99 % of control. For the same compound, the T/C (dose: 16.0 mg/kg/injection, schedule: Q01DX005 (ip), vehicle: saline + alcohol) was 116 % of control, the T/C (dose: 16.0 mg/kg/injection, schedule: Q01DX005 (iv), vehicle: saline + alcohol) was 92 % of control and the T/C (dose: 16.0 mg/kg/injection, schedule: Q01DX005 (oral), vehicle: saline + alcohol) was 104 % of control. The T/C (dose: 16.0 mg/kg/injection, schedule: Q01DX009 (oral), vehicle: saline + alcohol) was 94 % of control, the T/C (dose: 32.0 mg/kg/injection, schedule: Q01DX001 (ip), vehicle: saline + alcohol) was 116 % of control and the T/C (dose: 32.0 mg/kg/injection, schedule: Q01DX001 (iv), vehicle: saline + alcohol) was 101 % of control. The T/C (dose: 32.0 mg/kg/injection, schedule: Q01DX001 (oral), vehicle: saline + alcohol) was 103 % of control, the T/C (dose: 32.0 mg/kg/injection, schedule: Q01DX005 (iv), vehicle: saline + alcohol) was 99 % of control and the T/C (dose: 32.0 mg/kg/injection, schedule: Q01DX005 (oral), vehicle: saline + alcohol) was 90 % of control. The T/C (dose: 32.0 mg/kg/injection, schedule: Q01DX009 (oral), vehicle: saline + alcohol) was 104 % of control, the T/C (dose: 64.0 mg/kg/injection, schedule: Q01DX001 (iv), vehicle: saline + alcohol) was 105 % of control and the T/C (dose: 64.0 mg/kg/injection, schedule: Q01DX001 (oral), vehicle: saline + alcohol) was 101 % of control. The T/C (dose: 64.0 mg/kg/injection, schedule: Q01DX005 (oral), vehicle: saline + alcohol) was 97 % of control, the T/C (dose: 64.0 mg/kg/injection, schedule: Q01DX009 (oral), vehicle: saline + alcohol) was 101 % of control and the T/C (dose: 128.0 mg/kg/injection, schedule: Q01DX001 (oral), vehicle: saline + alcohol) was 105 % of control.

For `OC(c1ccccc1)C1(c2ccccc2)OCCO1` (stereo unspecified), the T/C [5] was 100 % of control, the T/C [6] was 95 % of control and the T/C (dose: 400.0 mg/kg/injection, schedule: Q01DX009 (ip), vehicle: saline with Tween-80) was 90 % of control.

`CC1CCC(=C(c2ccccc2)c2ccccc2)C(C)N1C` (stereo unspecified) was tested, and the T/C [11] was 105 % of control and the T/C (dose: 50.0 mg/kg/injection, schedule: Q04DX003 (ip), vehicle: saline with Tween-80) was 93 % of control.

In the case of `O=C(O)C(S)c1ccc2ccccc2c1` (stereo unspecified), the T/C [4] is reported as 101 % of control and the T/C [12] is reported as 96 % of control.

For `O=C1OCC(O)C(O)C(O)C(O)C1O` (stereo unspecified), the T/C [8] was 113 % of control, the T/C [9] was 106 % of control and the T/C (dose: 400.0 mg/kg/injection, schedule: Q01DX009 (ip), vehicle: saline) was 120 % of control.

For `CC1CC(C)(C)C(C[NH-])C1[NH-].[Cl][Pt+2][Cl]` (stereo unspecified), the T/C (dose: 4.0 mg/kg/injection, schedule: Q01DX009 (ip), vehicle: other) was 153 % of control, the T/C (dose: 8.0 mg/kg/injection, schedule: Q01DX009 (ip), vehicle: other) was 150 % of control and the T/C (dose: 16.0 mg/kg/injection, schedule: Q01DX009 (ip), vehicle: other) was 112 % of control.

`CC(C)c1ccc(C(=O)CCCCl)cc1` was tested, and the T/C [5] was 93 % of control and the T/C [6] was 86 % of control.

With `CCCC(C(CC)CN(C)C)N(C)C` (stereo unspecified) the T/C [13] was 90 % of control, the T/C [14] was 96 % of control and the T/C [3] was 94 % of control.

For `O=c1[nH]c(=O)n([C@H]2CCCO2)cc1F`, the T/C (dose: 3.12 mg/kg/injection, schedule: Q01DX009 (ip), vehicle: saline) was 86 % of control, the T/C [7] was 98 % of control and the T/C (dose: 12.5 mg/kg/injection, schedule: Q01DX009 (ip), vehicle: saline) was 86 % of control. The T/C [1] was 94 % of control, the T/C [15] was 100 % of control and the T/C [2] was 97 % of control. The T/C [10] was 95 % of control, the T/C [4] was 102 % of control and the T/C [8] was 102 % of control and 104 % of control.

In the case of `CC(C)CC(Br)C(=O)NCC(=O)O` (stereo unspecified), the T/C [14] is reported as 95 % of control and the T/C [3] is reported as 95 % of control.

With `CCN=NNc1ccc(C)cc1` the T/C (dose: 3.13 mg/kg/injection, schedule: Q01DX009 (ip), vehicle: saline with Tween-80) was 95 % of control, the T/C (dose: 6.25 mg/kg/injection, schedule: Q01DX009 (ip), vehicle: saline with Tween-80) was 91 % of control and the T/C (dose: 6.25 mg/kg/injection, schedule: Q04DX003 (ip), vehicle: saline with Tween-80) was 94 % of control. The T/C [13] was 97 % of control, the T/C (dose: 12.5 mg/kg/injection, schedule: Q04DX003 (ip), vehicle: saline with Tween-80) was 101 % of control and the T/C [14] was 91 % of control. For the same compound, the T/C [11] was 103 % of control.

For `CC(O)COc1ccc(OCc2ccccc2)cc1` (stereo unspecified), the T/C [4] was 106 % of control, the T/C [12] was 109 % of control and the T/C (dose: 400.0 mg/kg/injection, schedule: Q01DX009 (ip), vehicle: Klucel (hydroxypropylcellulose) (HPC)) was 100 % of control.

`C=C(C)/C([O-])=N/[N+](C)(C)CC(O)CCCCCCCCCCCC` (stereo unspecified) was tested, and the T/C (dose: 25.0 mg/kg/injection, schedule: Q01DX001 (ip), vehicle: saline) was 91 % of control and the T/C (dose: 50.0 mg/kg/injection, schedule: Q01DX001 (ip), vehicle: saline) was 95 % of control.

`COc1cc(/C=C/C(N)=O)cc(OC)c1OC` was tested, and the T/C [15] was 107 % of control, the T/C [8] was 94 % of control and the T/C [9] was 102 % of control.

With `Clc1ccc(CN2COc3c(ccc4cccnc34)C2)cc1Cl` the T/C [14] was 106 % of control, the T/C [3] was 108 % of control and the T/C [5] was 107 % of control.

`CC1C[N-]CC(C)C1.CC1C[N-]CC(C)C1.CC1C[N-]CC(C)C1.CC1C[N-]CC(C)C1.[Cl][Rh][Cl]` (stereo unspecified) was tested, and the T/C (dose: 1.5 mg/kg/injection, schedule: Q01DX009 (ip), vehicle: saline with Tween-80) was 91 % of control, the T/C (dose: 3.0 mg/kg/injection, schedule: Q01DX009 (ip), vehicle: saline with Tween-80) was 107 % of control and the T/C (dose: 3.0 mg/kg/injection, schedule: Q01DX009 (ip), vehicle: saline) was 116 % of control. For the same compound, the T/C (dose: 6.0 mg/kg/injection, schedule: Q01DX009 (ip), vehicle: saline with Tween-80) was 93 % of control and the T/C (dose: 6.0 mg/kg/injection, schedule: Q01DX009 (ip), vehicle: saline) was 116 % of control.

For `NC(=O)CC1=NCCc2ccccc21`, the T/C [15] was 105 % of control, the T/C [10] was 97 % of control and the T/C [8] was 91 % of control and 105 % of control.
